# “And” between values parts separate entries of the source, which are not always exact repeats. Identical values can stand only once.
# Key:
# [1] = target: Porcine Cardiac Muscle Myosin II ATPase (Sus scrofa, UniProt P79293); conditions: single concentration of 100 micromolar; Toth table IV; cited from earlier work
# [2] = test system: Non-muscle Myosin ATPases; conditions: single concentration of 100 micromolar; Toth table IV; cited from earlier work
# [3] = test system: rat bladder smooth muscle strip (detrusor); assay: Relaxation of rat bladder strips pre-contracted with 60 mM KCl or 1 μM carbachol (organ bath); format: cell-based; conditions: for bladder relaxation in vitro, enantiomer compared with racemic blebbistatin mixture: in vitro studies; for relaxation of KCl and CC evoked detrusor contraction: 60 mM KCl or 1 μM CC pre-contraction, maximal pre-contraction = 100%
# Protocol: (§1) Experimental materials and methods: All chemical were from Sigma (St. Louis, USA) except (±) blebbistatin (racemic blebbistatin) was from Tocris (Ellisville, Mo.). […] Rat bladder body and aorta were obtained from 17 (275-300 gram) adult male Sprague-Dawley (SD) rats (Charles River; Raleigh, N.C.). All animal studies were approved by the Animal Institute Committee of the Albert Einstein College of Medicine.
# In vitro organ bath studies: The in vitro contractility studies were performed as previously described by Zhang X, Kuppam D, Aydin M, Melman A, DiSanto M. “In vitro and in vivo relaxation of corpus cavernosum smooth muscle by the selective myosin II inhibitor, blebbistatin.” J Sex Med 2009; 6:2661-71, Sandhu K S, Chua R G, Zhang X, et al. “Regional heterogeneity in expression of the sphingosine-1-phosphate pathway in the female rat lower urinary tract”; Am J Obstet Gynecol 2009; 200:576-7; Chua R G, Calenda G, Zhang X, et al. “Testosterone regulates erectile function and Vcsal expression in the corpora of rats”; Mol Cell Endocrinol 2009; 303:67-73. Bladder strips were mounted longitudinally and aortic rings horizontally in a 5 ml organ bath—Multi-Myograph Model 810MS (bladder) or Model 610M (aorta) (Danish Myo Technology; Aarhus, Denmark). The myograph was connected in line to a PowerLab 4/30 Data Acquisition System (ADInstruments; Colorado Springs, Colo.) and in turn to a Dual-Core processor Pentium computer for real-time monitoring of physiological force. The smooth muscle strips were equilibrated at least 1 hour in Krebs-Henseleit (Krebs) buffer at 37° C. with continuous bubbling of 95% O2 and 5% CO2 and buffer was changed every 15 minutes (min). Strips were continuously adjusted to resting tension (0.5 g for rat bladder and 1 g for human bladder (Yamamoto M, Harm S C, Grasser W A, Thiede M A. “Parathyroid hormone-related protein in the rat urinary bladder: a smooth muscle relaxant produced locally in response to mechanical stretch.” Proc Natl Acad Sci USA 1992; 89:5326-30. After equilibration, rat detrusor was contracted with 60 mM KCl and the force induced by cumulative concentrations (10-5-10-1 M) of carbachol (CC) or electrical field stimulation (EFS) at varying frequencies of 2-32 Hz, pulse duration 1.5 ms, train 5 s, and 80 V, was normalized to that KCl response. Next, all strips were pre-contracted with 60 mM KCl, or 1 μM CC (rat bladder), or 20 nM endothelin-1 (ET-1) (human bladder) and allowed to reach stable tension and then the relaxant effects of increasing doses of blebbistatin were evaluated. For rat detrusor, after pre-incubation with blebbistatin (10 μM) for 30 min, its inhibitory effect on CC (1 μM) induced contractility or aforementioned EFS mediated contractility was also tested. Additionally, the influence of blebbistatin (10 μM) on rat detrusor spontaneous activity and basal tone was evaluated.
# [4] = test system: rat bladder smooth muscle strip (detrusor); assay: Pre-incubation with blebbistatin: carbachol-induced rat detrusor contraction; format: cell-based; conditions: for attenuation of carbachol (CC) responsiveness: pre-incubation 10 μM for 30 min, 1 μM CC
# Protocol: as §1
# (§2) In vitro organ bath studies: The in vitro contractility studies were performed as previously described by Zhang X, Kuppam D, Aydin M, Melman A, DiSanto M. “In vitro and in vivo relaxation of corpus cavernosum smooth muscle by the selective myosin II inhibitor, blebbistatin.” J Sex Med 2009; 6:2661-71, Sandhu K S, Chua R G, Zhang X, et al. “Regional heterogeneity in expression of the sphingosine-1-phosphate pathway in the female rat lower urinary tract”; Am J Obstet Gynecol 2009; 200:576-7; Chua R G, Calenda G, Zhang X, et al. “Testosterone regulates erectile function and Vcsal expression in the corpora of rats”; Mol Cell Endocrinol 2009; 303:67-73. Bladder strips were mounted longitudinally and aortic rings horizontally in a 5 ml organ bath—Multi-Myograph Model 810MS (bladder) or Model 610M (aorta) (Danish Myo Technology; Aarhus, Denmark). The myograph was connected in line to a PowerLab 4/30 Data Acquisition System (ADInstruments; Colorado Springs, Colo.) and in turn to a Dual-Core processor Pentium computer for real-time monitoring of physiological force. The smooth muscle strips were equilibrated at least 1 hour in Krebs-Henseleit (Krebs) buffer at 37° C. with continuous bubbling of 95% O2 and 5% CO2 and buffer was changed every 15 minutes (min). Strips were continuously adjusted to resting tension (0.5 g for rat bladder and 1 g for human bladder (Yamamoto M, Harm S C, Grasser W A, Thiede M A. “Parathyroid hormone-related protein in the rat urinary bladder: a smooth muscle relaxant produced locally in response to mechanical stretch.” Proc Natl Acad Sci USA 1992; 89:5326-30. After equilibration, rat detrusor was contracted with 60 mM KCl and the force induced by cumulative concentrations (10-5-10-1 M) of carbachol (CC) or electrical field stimulation (EFS) at varying frequencies of 2-32 Hz, pulse duration 1.5 ms, train 5 s, and 80 V, was normalized to that KCl response. Next, all strips were pre-contracted with 60 mM KCl, or 1 μM CC (rat bladder), or 20 nM endothelin-1 (ET-1) (human bladder) and allowed to reach stable tension and then the relaxant effects of increasing doses of blebbistatin were evaluated. […] Additionally, the influence of blebbistatin (10 μM) on rat detrusor spontaneous activity and basal tone was evaluated.
# [5] = test system: human bladder smooth muscle strip; assay: Relaxation of human bladder (base) strips pre-contracted with 20 nM endothelin-1; format: cell-based; conditions: for relaxation of human bladder pre-contracted with endothelin-1: 20 nM ET-1; for relaxation/block of endothelin-1 induced human bladder contraction (in words): dose-dependent
# Protocol: as §1, §2
# [6] = target: Myosin II ATPase in rabbit striated skeletal muscle; conditions: in vitro, read-out: IC50, inhibition of Myosin II ATPase; cited from earlier work
# [7] = test system: rat bladder strips; assay: Spontaneous contractions and basal tone of rat bladder strips; format: cell-based
# Protocol: as §1, §2
# [8] = test system: rat bladder smooth muscle strip (detrusor); assay: Pre-incubation with blebbistatin: electrical field stimulation-induced rat bladder contraction; format: cell-based; conditions: pre-incubation 10 μM for 30 min, 32 Hz
# Protocol: as §1
# In vitro organ bath studies: The in vitro contractility studies were performed as previously described by Zhang X, Kuppam D, Aydin M, Melman A, DiSanto M. “In vitro and in vivo relaxation of corpus cavernosum smooth muscle by the selective myosin II inhibitor, blebbistatin.” J Sex Med 2009; 6:2661-71, Sandhu K S, Chua R G, Zhang X, et al. “Regional heterogeneity in expression of the sphingosine-1-phosphate pathway in the female rat lower urinary tract”; Am J Obstet Gynecol 2009; 200:576-7; Chua R G, Calenda G, Zhang X, et al. “Testosterone regulates erectile function and Vcsal expression in the corpora of rats”; Mol Cell Endocrinol 2009; 303:67-73. […] Next, all strips were pre-contracted with 60 mM KCl, or 1 μM CC (rat bladder), or 20 nM endothelin-1 (ET-1) (human bladder) and allowed to reach stable tension and then the relaxant effects of increasing doses of blebbistatin were evaluated. […]
# [9] = test system: bladder of awake rat; assay: Awake rat cystometry (urodynamics) after intravesical blebbistatin; format: in vivo
# Protocol: Cystometric evaluation of bladder function was performed as previously described on a separate set of 5 rats. See Malmgren A, Andersson P O, Uvelius B. “Bladder function in rats with short- and long-term diabetes; effects of age and muscarinic blockade” J Urol 1989; 142:1608-14; Melman A, Zotova E, Kim M, et al. “Longitudinal studies of time-dependent changes in both bladder and erectile function after streptozotocin-induced diabetes in Fischer 344 male rats” BJU Int 2009, 104:1292-300; Suadicani S O, Urban-Maldonado M, Tar M T, Melman A, Spray D C. “Effects of ageing and streptozotocin-induced diabetes on connexin43 and P2 purinoceptor expression in the rat corpora cavernosa and urinary bladder” BJU Int 2009; 103:1686-93. Under anesthesia, a PE 50 catheter with a cuff was surgically inserted into the bladder dome and exited through an orifice made in the back of the animal. […] The bladder catheter was connected to a 2-way valve that is, in turn connected to a pressure transducer as well as an infusion pump (model PHD 2000, Harvard Instruments; MA, USA). Rat bladder was infused with vehicle for 30 min and then cystometry was performed. After that, the same rat was treated with 250 nmols blebbistatin for the same period and cystometry was similarly repeated. One rat had bladder over-activity possibly due to post-surgical infection and thus blebbistatin was kept in the bladder for only about 5 min. The rate of infusion of room temperature saline was set at 10 ml/h. Bladder activity was continuously recorded after the first micturition, and subsequently at least 2 h of data were recorded from each rat. Statistical analysis: Results are expressed as mean±SEM for n experiments. Statistical analysis was performed using either the Student's t-test (when two sample treatments were being compared) or using ANOVA when multiple means were compared. p<0.05 was considered significant.
# Bladder function was evaluated using the following urodynamic criteria: bladder capacity: (BC=volume of infused saline discharged at micturition); micturition volume (MV=the volume of urine discharged during micturition); residual volume (RV=volume of infused saline minus micturition volume); basal pressure (BP=the lowest average bladder pressure recorded during cystometry); micturition pressure (MP=peak bladder pressure during micturition); Bcom=bladder compliance; MF=micturition frequency; and the * indicates <0.05 vs vehicle.
# [10] = target: Myosin II ATPase in pig cardiac muscle (Sus scrofa, UniProt P79293); conditions: in vitro, read-out: IC50, inhibition of Myosin II ATPase; cited from earlier work
# Sequence of Myosin II ATPase in pig cardiac muscle (P79293 whole entry): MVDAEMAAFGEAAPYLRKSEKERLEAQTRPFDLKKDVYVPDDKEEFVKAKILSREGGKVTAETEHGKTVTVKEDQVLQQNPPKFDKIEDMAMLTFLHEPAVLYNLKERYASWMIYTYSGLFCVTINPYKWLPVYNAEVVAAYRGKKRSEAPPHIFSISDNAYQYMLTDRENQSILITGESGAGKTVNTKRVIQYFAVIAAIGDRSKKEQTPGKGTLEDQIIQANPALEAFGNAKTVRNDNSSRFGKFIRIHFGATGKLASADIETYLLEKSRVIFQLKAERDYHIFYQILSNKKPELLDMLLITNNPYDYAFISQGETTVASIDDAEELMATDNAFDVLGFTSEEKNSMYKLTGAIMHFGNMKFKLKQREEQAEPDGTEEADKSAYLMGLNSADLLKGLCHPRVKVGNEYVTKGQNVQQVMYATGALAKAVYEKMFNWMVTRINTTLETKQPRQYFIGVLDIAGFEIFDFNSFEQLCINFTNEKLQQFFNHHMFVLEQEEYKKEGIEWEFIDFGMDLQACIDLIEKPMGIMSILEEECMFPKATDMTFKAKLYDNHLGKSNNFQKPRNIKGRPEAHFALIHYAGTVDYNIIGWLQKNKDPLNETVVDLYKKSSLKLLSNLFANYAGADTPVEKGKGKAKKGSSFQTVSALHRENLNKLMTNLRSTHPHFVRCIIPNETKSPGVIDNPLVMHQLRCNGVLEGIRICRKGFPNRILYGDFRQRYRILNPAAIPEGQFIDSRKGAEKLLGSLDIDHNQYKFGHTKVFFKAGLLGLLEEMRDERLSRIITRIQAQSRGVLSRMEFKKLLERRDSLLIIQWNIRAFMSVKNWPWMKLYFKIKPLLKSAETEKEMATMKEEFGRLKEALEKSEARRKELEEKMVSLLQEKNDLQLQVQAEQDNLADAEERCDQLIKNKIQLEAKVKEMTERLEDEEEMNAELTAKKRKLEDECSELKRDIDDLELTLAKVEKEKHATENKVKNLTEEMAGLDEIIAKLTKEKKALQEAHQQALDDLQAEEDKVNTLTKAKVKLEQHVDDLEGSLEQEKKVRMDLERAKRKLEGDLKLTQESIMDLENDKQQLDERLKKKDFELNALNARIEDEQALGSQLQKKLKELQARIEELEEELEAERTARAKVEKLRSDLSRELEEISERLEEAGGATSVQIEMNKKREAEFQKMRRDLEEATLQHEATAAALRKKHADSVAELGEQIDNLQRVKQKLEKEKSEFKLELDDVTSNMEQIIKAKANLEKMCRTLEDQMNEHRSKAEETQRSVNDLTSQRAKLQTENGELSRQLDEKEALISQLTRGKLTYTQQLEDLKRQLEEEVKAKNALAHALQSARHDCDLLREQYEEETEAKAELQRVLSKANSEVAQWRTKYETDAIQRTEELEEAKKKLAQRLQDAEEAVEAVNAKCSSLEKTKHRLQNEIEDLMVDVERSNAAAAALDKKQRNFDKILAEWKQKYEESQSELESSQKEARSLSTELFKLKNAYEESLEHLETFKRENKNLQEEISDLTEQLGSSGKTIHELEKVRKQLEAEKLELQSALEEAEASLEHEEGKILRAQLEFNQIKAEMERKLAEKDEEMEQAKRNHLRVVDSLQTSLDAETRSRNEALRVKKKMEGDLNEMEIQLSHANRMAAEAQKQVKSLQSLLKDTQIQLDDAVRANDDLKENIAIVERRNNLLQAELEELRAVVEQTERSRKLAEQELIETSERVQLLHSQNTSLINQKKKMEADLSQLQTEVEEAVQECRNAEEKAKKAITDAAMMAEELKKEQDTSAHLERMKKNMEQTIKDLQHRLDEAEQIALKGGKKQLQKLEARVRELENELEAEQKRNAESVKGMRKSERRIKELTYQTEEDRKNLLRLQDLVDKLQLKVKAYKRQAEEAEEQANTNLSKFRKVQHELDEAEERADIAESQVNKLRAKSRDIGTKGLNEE
# [11] = test system: adult mouse bladder smooth muscle; conditions: 10 uM; tissue depolarized using potassium chloride; cited from earlier work
# [12] = test system: newborn mouse bladder; conditions: 10 uM; cited from earlier work
# [13] = target: Non-muscle Myosin IIA ATPase (Homo sapiens, UniProt P35579); conditions: read-out: IC50, inhibition of Non-muscle Myosin IIA ATPase; cited from earlier work
# Sequence of Non-muscle Myosin IIA ATPase (P35579 whole entry): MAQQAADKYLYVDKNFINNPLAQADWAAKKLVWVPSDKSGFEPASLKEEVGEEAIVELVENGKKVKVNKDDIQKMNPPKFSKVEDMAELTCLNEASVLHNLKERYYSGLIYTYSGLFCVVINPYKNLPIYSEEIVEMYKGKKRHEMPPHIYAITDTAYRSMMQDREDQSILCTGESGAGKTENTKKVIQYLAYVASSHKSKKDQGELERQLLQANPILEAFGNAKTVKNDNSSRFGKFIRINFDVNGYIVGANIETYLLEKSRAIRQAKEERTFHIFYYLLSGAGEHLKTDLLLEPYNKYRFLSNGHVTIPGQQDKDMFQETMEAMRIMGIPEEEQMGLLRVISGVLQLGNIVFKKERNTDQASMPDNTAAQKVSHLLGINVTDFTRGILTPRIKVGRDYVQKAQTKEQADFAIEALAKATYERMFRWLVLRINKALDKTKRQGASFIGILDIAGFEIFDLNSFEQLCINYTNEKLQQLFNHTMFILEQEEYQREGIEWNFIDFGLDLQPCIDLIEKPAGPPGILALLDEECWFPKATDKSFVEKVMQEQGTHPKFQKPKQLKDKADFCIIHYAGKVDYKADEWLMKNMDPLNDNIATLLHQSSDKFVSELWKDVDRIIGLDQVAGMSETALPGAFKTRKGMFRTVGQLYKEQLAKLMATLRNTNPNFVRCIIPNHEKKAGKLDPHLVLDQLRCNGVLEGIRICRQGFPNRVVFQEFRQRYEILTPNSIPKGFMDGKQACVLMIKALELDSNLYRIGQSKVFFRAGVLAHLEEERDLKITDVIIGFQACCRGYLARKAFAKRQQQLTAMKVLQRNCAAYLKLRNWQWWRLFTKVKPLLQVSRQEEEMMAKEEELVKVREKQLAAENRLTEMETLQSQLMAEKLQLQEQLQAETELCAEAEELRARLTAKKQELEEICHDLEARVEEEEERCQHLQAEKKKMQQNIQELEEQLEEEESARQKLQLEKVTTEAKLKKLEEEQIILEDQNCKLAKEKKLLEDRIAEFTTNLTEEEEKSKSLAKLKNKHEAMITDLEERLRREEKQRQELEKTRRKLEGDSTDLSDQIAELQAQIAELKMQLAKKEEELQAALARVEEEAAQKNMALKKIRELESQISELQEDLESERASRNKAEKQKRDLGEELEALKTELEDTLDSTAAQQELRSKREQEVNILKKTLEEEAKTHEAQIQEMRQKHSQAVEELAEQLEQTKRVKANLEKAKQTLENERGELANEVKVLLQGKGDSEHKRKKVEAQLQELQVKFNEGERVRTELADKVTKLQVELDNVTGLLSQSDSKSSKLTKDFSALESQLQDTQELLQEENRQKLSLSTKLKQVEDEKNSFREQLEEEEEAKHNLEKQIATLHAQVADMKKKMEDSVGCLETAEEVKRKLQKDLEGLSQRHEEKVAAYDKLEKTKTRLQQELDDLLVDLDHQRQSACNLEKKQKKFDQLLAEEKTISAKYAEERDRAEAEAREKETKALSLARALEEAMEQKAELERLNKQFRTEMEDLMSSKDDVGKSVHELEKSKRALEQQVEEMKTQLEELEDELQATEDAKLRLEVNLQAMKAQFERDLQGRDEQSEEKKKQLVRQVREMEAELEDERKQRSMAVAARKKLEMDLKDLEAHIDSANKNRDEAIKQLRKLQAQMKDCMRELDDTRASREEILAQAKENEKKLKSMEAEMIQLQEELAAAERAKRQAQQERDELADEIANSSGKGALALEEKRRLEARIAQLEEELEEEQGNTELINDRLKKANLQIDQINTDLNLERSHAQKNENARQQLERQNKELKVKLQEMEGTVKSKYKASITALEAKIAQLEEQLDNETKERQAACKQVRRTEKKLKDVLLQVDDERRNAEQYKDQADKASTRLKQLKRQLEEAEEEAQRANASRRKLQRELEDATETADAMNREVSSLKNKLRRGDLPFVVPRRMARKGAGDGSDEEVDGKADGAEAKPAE
# Sequence of Non-muscle Myosin IIA ATPase (P60660 whole entry partner): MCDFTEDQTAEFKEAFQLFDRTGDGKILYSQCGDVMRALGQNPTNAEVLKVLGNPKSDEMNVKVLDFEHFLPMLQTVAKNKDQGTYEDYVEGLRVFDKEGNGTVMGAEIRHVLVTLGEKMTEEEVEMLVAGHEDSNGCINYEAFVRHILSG
# Sequence of Non-muscle Myosin IIA ATPase (O14950 whole entry partner): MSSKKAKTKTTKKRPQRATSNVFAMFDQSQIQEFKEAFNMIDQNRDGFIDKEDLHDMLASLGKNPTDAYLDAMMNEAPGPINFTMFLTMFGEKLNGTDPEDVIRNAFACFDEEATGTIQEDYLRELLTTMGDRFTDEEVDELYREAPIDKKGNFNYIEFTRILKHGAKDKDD
# [14] = target: Smooth Muscle Myosin II ATPase (turkey smooth muscle); conditions: in vitro, read-out: IC50, inhibition of Smooth Muscle Myosin II ATPase; cited from earlier work
# [15] = with blebbistatin (10 μM), n = 15 strips from 6 rats
# [16] = awake rats, intravesical 250 nmols blebbistatin 30 min, n = 5
# Sequence of Porcine Cardiac Muscle Myosin II ATPase (P79293 whole entry): as the sequence (P79293 whole entry) above
structure (smiles),measurement,setting,value
"Cc1ccc2c(c1)C(=O)[C@]1(O)CCN(c3ccccc3)C1=N2 [(−)-blebbistatin, (−)-3aS-hydroxy-6-methyl-1-phenyl-1,2,3,3a-tetrahydro-4H-pyrrolo[2,3b] quinolin-4-one]",inhibition of cardiac muscle Myosin ATPase,[1],inhibited
same,inhibition of Non-muscle Myosin ATPases,[2],inhibited
same,"bladder relaxation in vitro, enantiomer compared with racemic blebbistatin mixture",[3],equipotent
"Cc1ccc2c(c1)C(=O)C1(O)CCN(c3ccccc3)C1=N2 (racemic) [blebbistatin, 3a-hydroxy-6-methyl-1-phenyl-1,2,3,3a-tetrahydro-4H-pyrrolo[2,3b]-quinolin-4-one]",attenuation of carbachol (CC) responsiveness,[4],about 65%
same,attenuation of carbachol (CC) responsiveness,[4]; listed as BLEB,about 65%
same,attenuation of carbachol (CC) responsiveness,[4]; listed as racemic blebbistatin,~65%
same,lowering of basal tone,[4]; pre-incubation 10 μm for 30 min,around 300 mg
same,relaxation of human bladder pre-contracted with endothelin-1,[5]; 1 μM,60%
same,relaxation of human bladder pre-contracted with endothelin-1,[5]; 3 am (so in the source),~100%
same,relaxation/block of endothelin-1 induced human bladder contraction (in words),[5],completely blocked
same,relaxation/block of endothelin-1 induced human bladder contraction (in words),[5]; listed as Racemic blebbistatin,completely relaxed
same,IC50,[6],0.5 µM
same,decrease in the amplitude of spontaneous smooth muscle contractions,[7]; 10 am (so in the source),~60%
same,Amplitude of spontaneous contractions,[7]; [15],118 ± 19.33 mg and 120 ± 19 mg
same,Basal Tone,[7]; [15],310 ± 16 mg
same,Frequency of spontaneous contractions,[7]; [15],5.5 +/− 1.2 cycles/min
same,inhibition of EFS-induced bladder contraction,[8],about 50%
same,inhibition of EFS-induced bladder contraction,[8]; listed as racemic blebbistatin,50%
same,BC (bladder capacity),[9]; [16],1.4 +/− 0.16 * ml
same,BP (basal pressure),[9]; [16],6.9 +/− 1.8 cm H20
same,MF (micturition frequency),[9]; [16],7.2 +/− 1.3 *
same,MP (micturition pressure),[9]; [16],42 +/− 13 cmH20
same,MV (micturition volume),[9]; [16],1.4 +/− 10 * ml
same,RV (residual volume),[9]; [16],0.03 ± 0.01 mL
same,decline of voiding frequency,"[9]; rat with overactive bladder (OAB), blebbistatin kept in bladder about 5 min",over 50%
same,IC50,[10],1.2 µM
same,block of adult mouse bladder smooth muscle contraction,[11],did not block
same,inhibition of bladder contraction of a newborn mouse,[12],did inhibit
same,IC50,[13],5.1 µM
same,time needed to relax the muscle strip in vitro in a tissue bath,[3],30 to 60 min
same,baseline and peak phasic force of contraction (FIG. 3),"[3]; 10 uM, strip pre-contracted with 1 uM carbacol",significant decrease
same,relaxation of KCl and CC evoked detrusor contraction,[3]; 1 μm,20-30%
same,relaxation of KCl and CC evoked detrusor contraction,[3]; 5 μm,80-100%
same,relaxation of KCl and carbachol induced rat detrusor contraction (in words),"[3]; dose-dependent, 1-10 μM cumulative",completely relaxed
same,IC50,[14],79.6 µM
CN1[C@@H]2CC[C@H]1C[C@@H](OC(=O)C(CO)c1ccccc1)C2 (stereo partly shown) [atropine],time needed to relax the muscle strip in vitro in a tissue bath,[3],3 to 5 min
"Cc1ccc2c(c1)C(=O)C1(O)CCN(c3ccccc3)C1=N2 (single isomer, unassigned; (+)) [(+)-blebbistatin]","bladder relaxation in vitro, enantiomer compared with racemic blebbistatin mixture",[3],did not induce significant bladder relaxation

# Source: patent US9994564B2, “Myosin II ATPase inhibitor compounds” (priority 2014, dated 2018)
